Marks after values point to notes of the source that are not given here.
How the values were obtained:
KPC-3 [1] = target: T1, KPC-3 (Klebsiella pneumoniae, UniProt Q9F663, H272Y); conditions: from Lineweaver-Burk plots
[2] = Spontaneous hydrolysis of probe in PBS buffer; type: physicochemical; conditions: [S]0=20 μM
Text: FIGS. 14A-14G illustrate the spontaneous hydrolysis in buffer of a probe according to the disclosure. FIG. 14A is a schema illustrating the spontaneous hydrolysis of a probe of the disclosure in PBS buffer to release umbelliferone and thereby generate a fluorescent signal. […] Initial concentration of probe, [P]: […] Error bars indicate the standard deviations of three replicate experiments.

VIM-27 [3] = experiment: Kinetic parameters of probes with recombinant VIM-27 (Lineweaver-Burk plots); conditions: from Lineweaver-Burk plots
TEM-1 Bla = TEM-1 Bla (Escherichia coli, UniProt P62593); type: biochemical; conditions: TEM-1 Bla 1 to 200 fmols; probe 10 μM, 25 μL 1×PBS pH 7.4, room temperature, 2 h
E. coli with IMP-1 = conditions: IMP-1-expressing bacteria; 2 h incubation
BlaC = BlaC (Mycobacterium tuberculosis, UniProt P9WKD3); experiment: Fluorescence of probes after incubation with recombinant BlaC; type: biochemical; conditions: BlaC 1 to 200 fmols; probe 10 μM, 25 μL 1×PBS pH 7.4, room temperature, 2 h
Protocol: (§1) The fluorescence of the probes was measured before and after enzyme treatment using enzyme concentrations in the range of about 1 to about 200 fmols. […] CDC-1, a previously reported non-specific probe for β-lactamases employed as a positive control, as described by Xie et al., (2012) J. Nat.

KPC-3 [4] = target: T1, KPC-3; type: biochemical; conditions: probe 10 μM, 2 h; for fluorescence enhancement: KPC-3 1 to 200 fmols, 25 μL 1×PBS pH 7.4, room temperature; for amount of enzyme giving detectable fluorescence: KPC-3
IMP-1 [5] = target: T2, IMP-1 (Serratia marcescens, UniProt P52699); type: biochemical, Escherichia coli; conditions: probe 10 μM, 2 h; for fluorescence enhancement: IMP-1 1 to 200 fmols, 25 μL 1×PBS pH 7.4, room temperature
NDM-1 [6] = target: T3, NDM-1 (Klebsiella pneumoniae, UniProt C7C422); type: biochemical, Escherichia coli; conditions: probe 10 μM, 2 h; for fluorescence enhancement: NDM-1 1 to 200 fmols, 25 μL 1×PBS pH 7.4, room temperature; for amount of enzyme giving detectable fluorescence: NDM-1
VIM-27 [7] = experiment: Fluorescence of probes after incubation with recombinant VIM-27; type: biochemical, Klebsiella pneumoniae; conditions: probe 10 μM, 2 h; for fluorescence enhancement: VIM-27 1 to 200 fmols, 25 μL 1×PBS pH 7.4, room temperature
Protocol: as §1

[8] = system: non-carbapenemase lactamases; experiment: Hydrolysis of probes by non-carbapenemase lactamases
NDM-1 [9] = target: T3, NDM-1; conditions: from Lineweaver-Burk plots
IMP-1 [10] = target: T2, IMP-1; conditions: from Lineweaver-Burk plots
[11] = system: [H][C@]1(OC(C)(C)C)C(=O)N2C(C(=O)O)=C(COc3ccc4ccc(=O)oc4c3)CS[C@@]21[H]; experiment: purified protein, by the assay type; conditions: from Lineweaver-Burk plots
[12] = system: [H][C@]1(OC)C(=O)N2C(C(=O)O)=C(COc3ccc4ccc(=O)oc4c3)CS[C@@]21[H]; experiment: purified protein, by the assay type; conditions: from Lineweaver-Burk plots
[13] = system: [H][C@]1(OCc2ccccc2)C(=O)N2C(C(=O)O)=C(COc3ccc4ccc(=O)oc4c3)CS[C@@]21[H]; experiment: purified protein, by the assay type; conditions: from Lineweaver-Burk plots
[14] = system: [H][C@]1(OS(=O)(=O)c2ccc(C)cc2)C(=O)N2C(C(=O)O)=C(COc3ccc4ccc(=O)oc4c3)CS[C@@]21[H]; experiment: purified protein, by the assay type; conditions: from Lineweaver-Burk plots
[15] = system: [H][C@]1(OCC)C(=O)N2C(C(=O)O)=C(COc3ccc4ccc(=O)oc4c3)CS[C@@]21[H]; experiment: purified protein, by the assay type; conditions: from Lineweaver-Burk plots
[16] = system: [H][C@]1(OC(C)C)C(=O)N2C(C(=O)O)=C(COc3ccc4ccc(=O)oc4c3)CS[C@@]21[H]; experiment: purified protein, by the assay type; conditions: from Lineweaver-Burk plots

Compound: CO[C@H]1C(=O)N2C(C(=O)O)=C(COc3ccc4ccc(=O)oc4c3)CS[C@H]12 [(s)-CC-1, (6R,7S)-7-methoxy-8-oxo-3-(((2-oxo-2H-chromen-7-yl)oxy)methyl)-5-thia-1-azabicyclo[4.2.0.]oct-2-ene-2-carboxylic Acid]
- Km (KPC-3 [1]): 67.7 ± 4.9 µM
- kcat (KPC-3 [1]): 1.5 ± 0.05 s⁻¹
- Spontaneous hydrolysis rate [2]: 7e-08 s⁻¹
- Km (VIM-27 [3]): 29.2 ± 7 µM
- kcat (VIM-27 [3]): 1.1 ± 0.1 s⁻¹
- fluorescence enhancement (TEM-1 Bla): almost no fluorescence enhancement
- number of bacteria detected / detection limit (E. coli with IMP-1): ≤ 10^4 c.f.u.
- fluorescence enhancement (BlaC): almost no fluorescence enhancement
- fluorescence enhancement (KPC-3 [4]): high fluorescence signals
- fluorescence enhancement (IMP-1 [5]): high fluorescence signals
- fluorescence enhancement (NDM-1 [6]): high fluorescence signals
- fluorescence enhancement (VIM-27 [7]): high fluorescence signals

Compound: CCO[C@H]1C(=O)N2C(C(=O)O)=C(COc3ccc4ccc(=O)oc4c3)CS[C@H]12 [(s)-CC-2, (6R,7S)-7-ethoxy-8-oxo-3-(((2-oxo-2H-chromen-7-yl)oxy)methyl)-5-thia-1-azabicyclo[4.2.0]oct-2-ene-2-carboxylic Acid]
- Km (KPC-3 [1]): 39.1 ± 1.3 µM
- kcat (KPC-3 [1]): 0.3 ± 0.05 s⁻¹
- Spontaneous hydrolysis rate [2]: 5.9e-07 s⁻¹
- Km (VIM-27 [3]): 23 µM
- kcat (VIM-27 [3]): 0.71 ± 0.0 s⁻¹
- fluorescence enhancement (TEM-1 Bla): almost no fluorescence enhancement
- fluorescence enhancement (BlaC): almost no fluorescence enhancement
- fluorescence enhancement (KPC-3 [4]): high fluorescence signals
- fluorescence enhancement (IMP-1 [5]): high fluorescence signals
- fluorescence enhancement (NDM-1 [6]): high fluorescence signals
- fluorescence enhancement (VIM-27 [7]): high fluorescence signals

Compound: CC(C)O[C@H]1C(=O)N2C(C(=O)O)=C(COc3ccc4ccc(=O)oc4c3)CS[C@H]12 [(s)-CC-3, (6R,7S)-7-isopropoxy-8-oxo-3-(((2-oxo-2H-chromen-7-yl)oxy)methyl)-5-thia-1-azabicyclo[4.2.0]oct-2-ene-2-carboxylic Acid]
- Km (KPC-3 [1]): 250 ± 235 µM
- kcat (KPC-3 [1]): 0.2 ± 0.17 s⁻¹
- Spontaneous hydrolysis rate [2]: 4.8e-07 s⁻¹
- Km (VIM-27 [3]): 61.3 ± 8.8 µM
- kcat (VIM-27 [3]): 0.5 ± 0.04 s⁻¹
- amount of enzyme giving detectable fluorescence (KPC-3 [4]): 200 fmol
- fluorescence enhancement (IMP-1 [5]): fluorescence enhancement
- fluorescence enhancement (NDM-1 [6]): fluorescence enhancement
- fluorescence enhancement (VIM-27 [7]): fluorescence enhancement

Compound: CC(C)(C)O[C@H]1C(=O)N2C(C(=O)O)=C(COc3ccc4ccc(=O)oc4c3)CS[C@H]12 [(s)-CC-4, (6R,7S)-7-(tert-butoxy)-8-oxo-3-(((2-oxo-2H-chromen-7-yl)oxy)methyl)-5-thia-1-azabicyclo[4.2.0]oct-2-ene-2-carboxylic Acid]
- Km (KPC-3 [1]): 121 ± 85 µM
- kcat (KPC-3 [1]): 0.2 ± 0.1 s⁻¹
- Spontaneous hydrolysis rate [2]: 5.4e-07 s⁻¹
- Km (VIM-27 [3]): 91.6 ± 10.1 µM
- kcat (VIM-27 [3]): 0.2 ± 0.01 s⁻¹
- hydrolysis by non-carbapenemase lactamases [8]: No hydrolysis
- number of bacteria detected / detection limit (E. coli with IMP-1): about 1×10^5 c.f.u.
- fluorescence enhancement (IMP-1 [5]): high specificity for IMP-1
- amount of enzyme giving detectable fluorescence (NDM-1 [6]): about 200 fmol

Compound: O=C(O)C1=C(COc2ccc3ccc(=O)oc3c2)CS[C@@H]2[C@@H](OCc3ccccc3)C(=O)N12 [(s)-CC-5, (6R,7S)-7-(benzyloxy)-8-oxo-3-(((2-oxo-2H-chromen-7-yl)oxy)methyl)-5-thia-1-azabicyclo[4.2.0]oct-2-ene-2-carboxylic Acid]
- Km (KPC-3 [1]): 5.2 ± 0.5 µM
- kcat (KPC-3 [1]): 1.1 ± 0.01 s⁻¹
- Spontaneous hydrolysis rate [2]: 2.7e-07 s⁻¹
- Km (VIM-27 [3]): 145 ± 100 µM
- kcat (VIM-27 [3]): 3.4 ± 1.5 s⁻¹
- fluorescence enhancement (TEM-1 Bla): almost no fluorescence enhancement
- hydrolysis by non-carbapenemase lactamases [8]: no hydrolysis
- fluorescence enhancement (BlaC): almost no fluorescence enhancement
- fluorescence enhancement (KPC-3 [4]): high fluorescence signals
- fluorescence enhancement (IMP-1 [5]): high fluorescence signals
- fluorescence enhancement (NDM-1 [6]): high fluorescence signals
- fluorescence enhancement (VIM-27 [7]): high fluorescence signals

Compound: Cc1ccc(S(=O)(=O)O[C@H]2C(=O)N3C(C(=O)O)=C(COc4ccc5ccc(=O)oc5c4)CS[C@H]23)cc1 [(s)-CC-6, (6R,7S)-8-oxo-3-(((2-oxo-2H-chromen-7-yl)oxy)methyl)-7-(tosyloxy)-5-thia-1-azabicyclo[4.2.0]oct-2-ene-2-carboxylic Acid]
- Km (KPC-3 [1]): 18.7 ± 7.8 µM
- kcat (KPC-3 [1]): 0.3 ± 0.05 s⁻¹
- Spontaneous hydrolysis rate [2]: 2.6e-07 s⁻¹
- Km (VIM-27 [3]): 14.1 ± 1.2 µM
- kcat (VIM-27 [3]): 3.9 ± 0.1 s⁻¹
- amount of enzyme giving detectable fluorescence (KPC-3 [4]): 200 fmol
- fluorescence enhancement (IMP-1 [5]): fluorescence enhancement
- amount of enzyme giving detectable fluorescence (IMP-1 [5]; IMP-1): ≤ 1.0 fmol
- fluorescence enhancement (NDM-1 [6]): fluorescence enhancement
- amount of enzyme giving detectable fluorescence (NDM-1 [6]): ≤ 1.0 fmol
- fluorescence enhancement (VIM-27 [7]): fluorescence enhancement
- amount of enzyme giving detectable fluorescence (VIM-27 [7]; VIM-27): ≤ 1.0 fmol

Compound: O=C(Cc1ccccc1)N[C@@H]1C(=O)N2C(C(=O)O)=C(COc3ccc4ccc(=O)oc4c3)CS[C@H]12 [CDC-1, reference compound]
- Km (KPC-3 [1]): 21 ± 1.34 µM
- kcat (KPC-3 [1]): 35.4 ± 0.04 s⁻¹
- Spontaneous hydrolysis rate [2]: 2.4^b ×10^−7s^−1
- Km (VIM-27 [3]): 3.8 ± 2.7 µM
- kcat (VIM-27 [3]): 2.3 ± 0.3 s⁻¹
- fluorescence enhancement (TEM-1 Bla): positive fluorescence enhancement
- fluorescence enhancement (BlaC): positive fluorescence enhancement
- Km (NDM-1 [9]): 5.04 ± 3.2 µM
- kcat (NDM-1 [9]): 4.6 ± 0.3 s⁻¹
- Km (IMP-1 [10]): 4 ± 0.1 µM
- kcat (IMP-1 [10]): 7.9 ± 0.1 s⁻¹
- fluorescence enhancement (KPC-3 [4]): positive fluorescence enhancement
- fluorescence enhancement (IMP-1 [5]): positive fluorescence enhancement
- fluorescence enhancement (NDM-1 [6]): positive fluorescence enhancement
- fluorescence enhancement (VIM-27 [7]): positive fluorescence enhancement

Compound: IMP-1 (Serratia marcescens)
- Km ([11]; other: IMP-1): 9.4 ± 1.3 µM
- kcat ([11]; other: IMP-1): 2.1 ± 0.01 s⁻¹
- kcat/Km ([11]; other: IMP-1): 2.2 × 10^5 s^−1M^−1
- Km ([12]; other: IMP-1): 7.8 ± 0.2 µM
- kcat ([12]; other: IMP-1): 12.2 ± 0.1 s⁻¹
- kcat/Km ([12]; other: IMP-1): 1.6 × 10^6 s^−1M^−1
- Km ([13]; other: IMP-1): 3.6 ± 0.1 µM
- kcat ([13]; other: IMP-1): 4.2 ± 0.03 s⁻¹
- kcat/Km ([13]; other: IMP-1): 1.2 × 10^6 s^−1M^−1
- Km ([14]; other: IMP-1): 3.4 ± 0.4 µM
- kcat ([14]; other: IMP-1): 2.2 ± 0.02 s⁻¹
- kcat/Km ([14]; other: IMP-1): 6.6 × 10^5 s^−1M^−1
- Km ([15]; other: IMP-1): 12.9 ± 1.0 µM
- kcat ([15]; other: IMP-1): 16.6 ± 0.1 s⁻¹
- kcat/Km ([15]; other: IMP-1): 1.3 × 10^6 s^−1M^−1
- Km ([16]; other: IMP-1): 3.2 ± 0.07 µM
- kcat ([16]; other: IMP-1): 8.0 ± 0.04 s⁻¹
- kcat/Km ([16]; other: IMP-1): 2.5 × 10^6 s^−1M^−1

Compound: NDM-1 (Klebsiella pneumoniae)
- Km ([11]; other: NDM-1): 58.6 ± 16.0 µM
- kcat ([11]; other: NDM-1): 0.3 ± 0.04 s⁻¹
- kcat/Km ([11]; other: NDM-1): 5.1 × 10^3 s^−1M^−1
- Km ([12]; other: NDM-1): 12.0 ± 0.7 µM
- kcat ([12]; other: NDM-1): 0.2 ± 0.02 s⁻¹
- kcat/Km ([12]; other: NDM-1): 2.0 × 10^4 s^−1M^−1
- Km ([13]; other: NDM-1): 26.7 ± 0.2 µM
- kcat ([13]; other: NDM-1): 0.3 ± 0.0 s⁻¹
- kcat/Km ([13]; other: NDM-1): 1.0 × 10^4 s^−1M^−1
- Km ([14]; other: NDM-1): 4.7 ± 0.3 µM
- kcat ([14]; other: NDM-1): 1.9 ± 0.06 s⁻¹
- kcat/Km ([14]; other: NDM-1): 4.0 × 10^5 s^−1M^−1
- Km ([15]; other: NDM-1): 14.9 ± 2.7 µM
- kcat ([15]; other: NDM-1): 0.3 ± 0.01 s⁻¹
- kcat/Km ([15]; other: NDM-1): 1.7 × 10^4 s^−1M^−1
- Km ([16]; other: NDM-1): 6.0 ± 3.5 µM
- kcat ([16]; other: NDM-1): 0.1 ± 0.01 s⁻¹
- kcat/Km ([16]; other: NDM-1): 2.0 × 10^4 s^−1M^−1

Source: patent publication US10570150B2, “6,7-trans cephalosporin-based probes for detecting bacteria expressing a metallo-beta-lactamase” (priority 2014, dated 2020)
